Measured values published in patent US12636368B2, “Ionizable lipids for nucleic acid delivery” (Global Life Sciences Solutions Canada ULC, priority 2019, dated 2026).
Like-named read-outs stand apart in the source and are kept apart here.

What was measured:
[1] = TNS assay, surface pKa of lipid nanoparticles; assay type: physicochemical
Method: In embodiments of the invention, the experimental pKa of formulated lipid nanoparticles comprising lipids in Table 1 is calculated using the 2-(p-toluidinyl)naphthalene-6-sulfonic acid (TNS) assay. The procedure for the TNS assay is described in Example 25.
The pKa of each cationic lipid was determined in lipid nanoparticles using an assay based on fluorescence of 6-(p-Toluidino)-2-naphthalenesulfonic acid sodium salt (TNS, Sigma Aldrich), which is a fluorescent probe for the conformational state of proteins5. Empty lipid nanoparticles comprising ionizable lipid in LM02 composition in distilled water at a concentration of 3.125 mM total lipid are formulated using NanoAssemblr® Spark™, and were then was characterized for LNP quality on the Zetasizer™ using a 30× dilution with 1×PBS in the low volume cuvette. Lipid nanoparticles were further diluted 4× using distilled water to 0.781 mM total lipid. TNS was prepared as a 25 μM stock solution in distilled water. Then 6.4 μL of diluted LNP samples of 0.781 mM total lipid were mixed with 10 μL of diluted TNS to a final volume of 250 μL with buffer containing 10 mM HEPES, 10 mM MES, 10 mM NH4OAc and 130 mM NaCl where the pH ranged from 3 to 9 in 0.5 pH increments.
Samples were mixed thoroughly, and the fluorescence intensity was measured at room temperature in a BioTek™ Synergy™ H1 Hybrid Multi-Mode Monochromator™ Fluorescence Microplate Reader using excitation and emission wavelengths of 321 nm and 445 nm respectively. A sigmoidal best fit analysis was applied to the fluorescence data using GraphPad Prism™ software, and the pKa was measured as the pH at half-maximal fluorescence intensity.

C57BL/6 mice = assay: OVA mRNA LNP intramuscular immunization, anti OVA-IgG ELISA; assay type: in vivo; settings: i.m., days 1 and 10
Description: LNP with the composition LM02b were used to encapsulate OVA antigen encoded CleanCap® OVA WT mRNA [TriLink L7610] or CleanCap® OVA 5-moU mRNA [TriLink L7210]. A lipid mixture of Ionizable lipid, DOPE, Cholesterol, and PEG-DMG2000, all in ethanol, was mixed with a low PH buffered solution of OVA mRNA at an N/P ratio of 8 using a NanoAssemblr® Ignite™ microfluidic mixer. The LNP were filtered using the Amicon™ ultra filtration technique and characterized for Size, PDI and Encapsulation Efficiency. Size and PDI were measured using dynamic light scattering techniques, and nucleic acid encapsulation efficiency was calculated from the Quant-iT RiboGreen RNA assay. […]
All animals were handled according to the Institutional Animal Care and Use Committee ethics protocols. […] Aliquots of serum samples were thawed and analyzed at appropriate dilutions for OVA expression and for IgG measurements using standard ELISA techniques.
Anti OVA-IgG ELISA of serum samples: Sera from the immunized mice were collected at 2 weeks post second immunization. OVA-specific production of IgG in response to OVA-encoded mRNA in various LNPs were measured by ELISA as described supra. […] After 30 minutes of incubation, a stop solution of 2 N sulphuric acid was added and a plate reader was used to determine absorbance at 450 nm. […]

[2] = LNP size and PDI by dynamic light scattering; assay type: physicochemical
Method: After the lipid particles were made as described supra, particle size (hydrodynamic diameter of the particles) was determined by Dynamic Light Scattering (DLS) using a ZetaSizer™ Nano ZS™ (Malvern Instruments, UK). He/Ne laser tuned to 633 nm wavelength was used as the light source. Data were measured from the scattered intensity data conducted in backscattering detection mode (measurement angle=173). Measurements were an average of 10 runs of two cycles each per sample. Z-Average size was reported as the particle size, and is defined as the harmonic intensity averaged particle diameter.
(§1) Physical characteristics of lipid nanoparticle (LNP) compositions comprising compounds according to Formula (I) and that were manufactured on the NanoAssemblr® Spark and Benchtop, are shown in Tables 6 and 7 below. Size, size variation of the LNP (PDI), encapsulation efficiency, and pKa are shown. The physical characteristics of these LNP are important from a standpoint of stability, biodistribution, and cell membrane crossing. There was good encapsulation in all the formulations, with polydispersity (PDI) under 0.3. Size and PDI were measured using dynamic light scattering techniques, and nucleic acid encapsulation efficiency was calculated from a modified Quant-iT RiboGreen RNA assay.

[3] = Nucleic acid encapsulation efficiency by RiboGreen assay; assay type: physicochemical
Method: Messenger RNA or plasmid NAT was diluted using sodium acetate buffer to the required concentration. Lipid nucleic acid particle samples were then prepared by running both fluids using the NanoAssemblr® Spark instrument. […] The lipid nucleic acid particles made in the instrument were immediately diluted down with 48 μL Ca and Mg free 1×PBS at pH 7.4 in the aqueous output well. These nucleic acid lipid particles were immediately collected into microcentrifuge tubes containing 96 μL of Ca and Mg free 1×PBS at pH 7.4. Encapsulation efficiency was measured by a modified Ribogreen™ assay (Quanti-iT RiboGreen™ RNA assay kit, Fisher). Observed particle attributes were generally sized from 60-200 nm for mRNA, depending on lipid composition and method of production.
as §1

[4] = Table 6, GFP-encoded LNPs, CT10, N/P 8
[5] = Table 7, EPO mRNA LNPs, LM02, N/P 6

## CCCCC/C=C\C/C=C\CCCCCCCC(=O)O[C@@H]1[C@@H](OC(=O)CCCCCCC/C=C\C/C=C\CCCCC)CO[C@@H]1COC(=O)C1CCN(C)CC1 (racemic) [PNI 325]
[1]; Table 1, formulated lipid nanoparticles, TNS assay, read-out: Exp. pKa
  pKa: 6.45
[1]; Table 8, read-out: Exp.pKa
  pKa: 6.45
C57BL/6 mice
  immune response to OVA antigen loaded LNPs: effectively elicit an immune response similar to OVA antigen
[2]; [4]
  Diameter (Z. ave, nm): 121.5 nm
  Polydispersity Index (PDI): 0.39
[2]; [5]
  Diameter (Z. ave, nm): 65.3 nm
  Polydispersity Index (PDI): 0.09
[3]; [4]
  Encapsulation Efficiency (%): 51.1%
[3]; [5]
  Encapsulation Efficiency (%): 95.9%
